Our source for the T/C values is PubChem BioAssay AID328 (DTP/NCI, 2004).

This assay relates to BDF1 mice, P388 leukemia ip, median survival T/C. In words: NCI In Vivo Anticancer Drug Screen. Data for tumor model P388 Leukemia (intraperitoneal) in B6D2F1 (BDF1) mice. As to conditions: endpoint: median survival time, higher = longer survival. An outline of the steps:
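Read-out is survival of treated animals expressed relative to the vehicle group, as a T/C ratio.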

[1] abbreviates: dose: 25.0 mg/kg/injection, schedule: Q01DX009 (ip), vehicle: Klucel (hydroxypropylcellulose) (HPC).
The mark [2] stands for this setting: dose: 50.0 mg/kg/injection, schedule: Q01DX009 (ip), vehicle: Klucel (hydroxypropylcellulose) (HPC).
[3] abbreviates: dose: 100.0 mg/kg/injection, schedule: Q01DX009 (ip), vehicle: Klucel (hydroxypropylcellulose) (HPC).
Where [4] appears, read: dose: 12.0 mg/kg/injection, schedule: Q04DX003 (ip), vehicle: saline.
[5] abbreviates: dose: 25.0 mg/kg/injection, schedule: Q01DX009 (ip), vehicle: saline.
The mark [6] stands for this setting: dose: 25.0 mg/kg/injection, schedule: Q04DX003 (ip), vehicle: saline.
[7] abbreviates: dose: 37.0 mg/kg/injection, schedule: Q01DX009 (ip), vehicle: saline.
The mark [8] stands for this setting: dose: 3.12 mg/kg/injection, schedule: Q01DX009 (ip), vehicle: saline.
Where [9] appears, read: dose: 12.5 mg/kg/injection, schedule: Q01DX009 (ip), vehicle: saline.
[10] abbreviates: dose: 25.0 mg/kg/injection, schedule: Q04DX003 (ip), vehicle: Klucel (hydroxypropylcellulose) (HPC).
Where [11] appears, read: dose: 50.0 mg/kg/injection, schedule: Q04DX003 (ip), vehicle: Klucel (hydroxypropylcellulose) (HPC).
The mark [12] stands for this setting: dose: 100.0 mg/kg/injection, schedule: Q01DX009 (ip), vehicle: saline with Tween-80.
Setting [13] is: dose: 0.78 mg/kg/injection, schedule: Q01DX009 (ip), vehicle: saline with Tween-80.
[14] abbreviates: dose: 1.56 mg/kg/injection, schedule: Q01DX009 (ip), vehicle: saline with Tween-80.
Setting [15] is: dose: 12.5 mg/kg/injection, schedule: Q01DX009 (ip), vehicle: saline with Tween-80.
[16] abbreviates: dose: 50.0 mg/kg/injection, schedule: Q01DX009 (ip), vehicle: saline with Tween-80.
Setting [17] is: dose: 50.0 mg/kg/injection, schedule: Q04DX003 (ip), vehicle: saline with Tween-80.
Setting [18] is: dose: 100.0 mg/kg/injection, schedule: Q04DX003 (ip), vehicle: saline with Tween-80.
The mark [19] stands for this setting: dose: 200.0 mg/kg/injection, schedule: Q04DX003 (ip), vehicle: saline with Tween-80.
[20] abbreviates: dose: 6.25 mg/kg/injection, schedule: Q01DX009 (ip), vehicle: saline.
Setting [21] is: dose: 50.0 mg/kg/injection, schedule: Q01DX009 (ip), vehicle: saline.

Each structure is given as a SMILES string. Several values for one entry are separate records, joined by “and”; a condition that tells them apart may be missing. Identical values can stand only once. Inconclusive results and toxic doses are left out.

For the compound `CC(=O)NN(c1ccc([N+](=O)[O-])cc1)c1ccc([N+](=O)[O-])cc1`, the T/C reads like this: under setting [1], 109 % of control; under setting [2], 109 % of control; under setting [3], 100 % of control.
For `C=CC(COC(C)=O)N1CC1` (stereo not given), the T/C reads like this: (dose: 4.0 mg/kg/injection, schedule: Q01DX009 (ip), vehicle: saline) 104 % of control; (dose: 6.0 mg/kg/injection, schedule: Q01DX009 (ip), vehicle: saline) 115 % of control; (dose: 8.0 mg/kg/injection, schedule: Q01DX009 (ip), vehicle: saline) 112 % of control; under setting [4], 110 % of control; (dose: 17.0 mg/kg/injection, schedule: Q01DX009 (ip), vehicle: saline) 116 % of control; under setting [5], 150 % of control and 165 % of control. Moreover, the T/C under setting [6] was 120 % of control and the T/C under setting [7] was 180 % of control.
In the case of `O=NNc1ccccn1`, the T/C is 105 % of control under setting [8], 214 % of control under setting [9] and 112 % of control under setting [5].
Take `C[P+](c1ccc(F)cc1)(c1ccc(F)cc1)c1ccc(F)cc1`: the T/C is, setting by setting: (dose: 12.5 mg/kg/injection, schedule: Q01DX009 (ip), vehicle: Klucel (hydroxypropylcellulose) (HPC)) 86 % of control; under setting [1], 104 % of control; under setting [10], 104 % of control; under setting [2], 109 % of control; under setting [11], 90 % of control.
Consider `C/C(=C\COc1ccc2ccc(=O)oc2c1)C1=CC(=O)C(C)(C)O1`, for which the T/C runs as follows: under setting [1], 93 % of control; under setting [2], 94 % of control; (dose: 100.0 mg/kg/injection, schedule: Q01DX001 (ip), vehicle: saline with Tween-80) 100 % of control; under setting [3], 87 % of control; under setting [12], 115 % of control; (dose: 200.0 mg/kg/injection, schedule: Q01DX001 (ip), vehicle: saline with Tween-80) 103 % of control. Further, the T/C (dose: 200.0 mg/kg/injection, schedule: Q01DX009 (ip), vehicle: Klucel (hydroxypropylcellulose) (HPC)) is 95 % of control and the T/C (dose: 400.0 mg/kg/injection, schedule: Q01DX001 (ip), vehicle: saline with Tween-80) is 100 % of control.
Consider `Cc1cc(C(=O)N/N=C/c2ccccc2O)c2cc(Br)ccc2n1`, for which the T/C under setting [13] was 95 % of control; the T/C under setting [14] is 95 % of control; the T/C (dose: 3.12 mg/kg/injection, schedule: Q01DX009 (ip), vehicle: saline with Tween-80) was 97 % of control.
Turning to `COc1cc(C=C2C(=O)C=CC2=O)ccc1O`, the T/C runs as follows: under setting [13], 116 % of control; under setting [14], 104 % of control; (dose: 3.13 mg/kg/injection, schedule: Q01DX009 (ip), vehicle: saline with Tween-80) 112 % of control; (dose: 6.25 mg/kg/injection, schedule: Q01DX009 (ip), vehicle: saline with Tween-80) 110 % of control; under setting [15], 95 % of control.
As for `O=C(O)O.[Ce]`, the T/C reads like this: under setting [16], 107 % of control; under setting [12], 107 % of control.
Consider `O=C(NN=C1CCCCC1)c1ccccc1`, for which the T/C under setting [10] was 100 % of control; the T/C under setting [2] is 100 % of control; the T/C under setting [11] is 100 % of control; the T/C (dose: 56.25 mg/kg/injection, schedule: Q01DX001 (ip), vehicle: Klucel (hydroxypropylcellulose) (HPC)) was 100 % of control; the T/C under setting [3] was 110 % of control; the T/C (dose: 100.0 mg/kg/injection, schedule: Q04DX003 (ip), vehicle: Klucel (hydroxypropylcellulose) (HPC)) was 86 % of control. The T/C reads like this: (dose: 112.5 mg/kg/injection, schedule: Q01DX001 (ip), vehicle: Klucel (hydroxypropylcellulose) (HPC)) 104 % of control; (dose: 150.0 mg/kg/injection, schedule: Q04DX003 (ip), vehicle: Klucel (hydroxypropylcellulose) (HPC)) 104 % of control; (dose: 225.0 mg/kg/injection, schedule: Q01DX001 (ip), vehicle: Klucel (hydroxypropylcellulose) (HPC)) 109 % of control; (dose: 225.0 mg/kg/injection, schedule: Q04DX003 (ip), vehicle: Klucel (hydroxypropylcellulose) (HPC)) 95 % of control.
As to `O=c1[nH]cnc2c1nc1n2CCC1`, the T/C was 90 % of control under setting [17], 90 % of control under setting [18] and 113 % of control under setting [19].
`S=C1NC2=C(CCC/C2=C\c2ccccc2)C(c2ccccc2)N1` (stereo not given): the T/C is 91 % of control under setting [16] and 96 % of control under setting [12].
In the same order, the values of `N#Cc1cnc(=S)n(-c2cc(C(F)(F)F)cc(C(F)(F)F)c2)c1N` are 101 % of control and 115 % of control.
As for `CN(C)c1ccc(C=Nc2ccc3c(c2)/C(=C/c2ccc(N(C)C)cc2)c2ccccc2-3)cc1`, the T/C (dose: 25.0 mg/kg/injection, schedule: Q04DX003 (ip), vehicle: saline with Tween-80) was 116 % of control; the T/C under setting [17] was 122 % of control; the T/C under setting [18] is 116 % of control; the T/C under setting [19] was 121 % of control.
`Cc1ncc([N+](=O)[O-])n1CCOc1c(Br)cc(Br)cc1CN(C)C1CCCCC1`: the T/C reads like this: under setting [18], 100 % of control; under setting [19], 105 % of control; (dose: 400.0 mg/kg/injection, schedule: Q04DX003 (ip), vehicle: saline with Tween-80) 115 % of control.
Consider `CC(C)c1cccc(OS(=O)(=O)c2ccccc2[N+](=O)[O-])c1`, for which the T/C reads like this: (dose: 100.0 mg/kg/injection, schedule: Q04DX003 (ip), vehicle: saline sonified) 100 % of control; (dose: 200.0 mg/kg/injection, schedule: Q04DX003 (ip), vehicle: saline sonified) 100 % of control; (dose: 400.0 mg/kg/injection, schedule: Q04DX003 (ip), vehicle: saline sonified) 100 % of control.
For `CN(C)CCCc1c2ccccc2nc2ccc(Cl)cc12`, the T/C is, setting by setting: (dose: 1.56 mg/kg/injection, schedule: Q01DX009 (ip), vehicle: saline) 109 % of control; under setting [8], 90 % of control; (dose: 6.0 mg/kg/injection, schedule: Q04DX003 (ip), vehicle: saline) 104 % of control; under setting [20], 100 % of control and 109 % of control; (dose: 11.0 mg/kg/injection, schedule: Q01DX009 (ip), vehicle: saline) 109 % of control; under setting [4], 109 % of control. Also, the T/C is, setting by setting: under setting [9], 100 % of control; (dose: 16.0 mg/kg/injection, schedule: Q01DX009 (ip), vehicle: saline) 100 % of control; under setting [6], 109 % of control; under setting [7], 118 % of control; under setting [21], 109 % of control.
For the compound `CCN(CC)CCNC(=S)N/N=C(C)\C(C)=N/NC(=S)NCCN(CC)CC`, the T/C under setting [20] is 105 % of control and the T/C under setting [9] is 105 % of control.
Take `Cc1nc(N)nc2nc[nH]c12`: the T/C under setting [15] was 94 % of control; the T/C (dose: 25.0 mg/kg/injection, schedule: Q01DX009 (ip), vehicle: saline with Tween-80) was 96 % of control; the T/C under setting [16] was 99 % of control; the T/C under setting [12] was 96 % of control.
Consider `CCCCCCC(=O)/C=C/c1ccccc1OC`, for which the T/C is 90 % of control under setting [16]; 99 % of control under setting [12]; 117 % of control (dose: 200.0 mg/kg/injection, schedule: Q01DX009 (ip), vehicle: saline with Tween-80).
Consider `CC1CN1P(=O)(N1CC1C)N1CC1C` (stereo not given), for which the T/C reads like this: under setting [5], 100 % of control; (dose: 33.0 mg/kg/injection, schedule: Q04DX003 (ip), vehicle: saline) 222 % of control; under setting [21], 105 % of control; (dose: 50.0 mg/kg/injection, schedule: Q04DX003 (ip), vehicle: saline) 177 % of control and 186 % of control; (dose: 75.0 mg/kg/injection, schedule: Q04DX003 (ip), vehicle: saline) 250 % of control and 116 % of control; (dose: 100.0 mg/kg/injection, schedule: Q04DX003 (ip), vehicle: saline) 236 % of control.
